Data on eleven compounds can be found in patent US9931316B2 (priority 2015, dated 2018).

The structures appear in SMILES notation. Converted amounts (≈) assume the structure as drawn. Like-named read-outs stand apart in the source and are kept apart here.

The subject of one series is Polio. The format is cell-based, poliovirus. The conditions noted are these: Polio primary, SI50 = CC50/EC50.
Series [1] deals with Mycobacterium tuberculosis. The note with it: Hwang et al., J. Nat. Prod. 76: 1916-1922 (2013); cited from earlier work.
For another series, the system named is Ebola. The class given is cell-based, Ebola virus. The conditions noted are these: SI50 = CC50/EC50.
Another series is described as follows: in vitro. The conditions noted are these: dog.
Series [2] deals with Flu A (H3N2) Wisconsin/67/2005. Put plainly: microbe, parasite or virus in culture. The class given is cell-based, Influenza A. The conditions noted are these: for Cntrl SI: Ribavirin control, Flu A (H3N2).
In series [3] the test system is Flu A (H5N1) Vietnam/1203/2004H. Put plainly: microbe, parasite or virus in culture. The format is cell-based, Influenza A.
For another series, the system named is Flu B Shanghai/361/02. Nature of the series: Influenza B antiviral assay in MDCK cells (BioShield, NIH contract labs). The class given is cell-based. The conditions noted are these: for EC50: Influenza B virus, read-out: Cntrl EC50; for EC50 / Cntrl SI: Ribavirin control, Flu B. The source says:
Following the Project BioShield Act of 2004, Fungi Perfecti, LLC submitted over 200 hot water fruitbody and aqueous ethanolic extracts of the in vitro grown mycelia of mushroom species and strains within to the BioShield BioDefense Program administered by the U.S. Army Medical Research Institute of Infectious Diseases ([…]) and the National Institutes of Health (NIH). Submitted samples were screened for antiviral activity coordinated through the Southern Research Institute (SRI). From the more than 200 samples the inventor provided to BioShield, 2,392 antiviral assays were performed on behalf of the inventor; 1,042 of which were influenza tests.
The protocols for determining antiviral activity are fully described by the National Institutes of Allergy and Infectious Diseases (NIAID) by Greenstone et al., NIAID resources for developing new therapies for severe viral infections, Antiviral Res., Volume 78, Issue 1, April 2008, Pages 51-59, hereby incorporated by reference in its entirety. The influenza bioassays were conducted according to Sidwell, R W and Smee, D F, In vitro and in vivo assay systems for study of influenza virus inhibitors, Antiviral Res., October 2000, 48(1):1-16., hereby incorporated by reference in its entirety.

The subject of another series is Human papillomavirus 11. The class given is cell-based, human papillomavirus (HPV).
For series [4] the following is noted: oral ingestion; cited from earlier work.
A further series has as its system Norovirus. The format is cell-based, norovirus (Norwalk). Set-up: unit not given beside the values.
A further series has as its system HSV-1. Nature of the series: microbe, parasite or virus in culture. The conditions noted are these: Human alphaherpesvirus 1, HFF, read-out: Cntrl EC50. The class given is cell-based, Herpes Simplex.
Series [5] deals with laccase activity of Trametes sp. 1-62. The note with it: Terron et al. 2004; cited from earlier work.
For series [6] the following is noted: within the human body; cited from earlier work.

Regarding `O=c1cc(-c2ccccc2)oc2cc(O)cc(O)c12` [Chrysin], the SI50 result was “Polio primary: SI50 > 15 (Control pirodavir SI50 > 22)” in the series on Polio and > 15 with Polio (listed as chrysin).
As to `CCOC(=O)c1c(-c2ccccc2)c2ccc(Cl)cc2oc1=O` [Ethyl 7-chloro-2-oxo-4-phenyl-2H-chromen-3-carboxylate], the “activity against Mycobacterium tuberculosis” value in [1] is recorded as “active”.
With `CC(=O)/C=C(O)\C=C\c1ccc(O)c(O)c1` [Hispolon], in the series on Ebola, the SI50 is recorded as > 5.3. Also, the “activity against Mycobacterium tuberculosis” value in series [1] is “active”.
As a reminder, the IC50 is the midpoint of a concentration-inhibition curve. Usually EC50 stands for the concentration needed to bring the measured effect to its halfway point. Broadly, the EC90 is the point of the concentration-response curve where the effect stands at 90%. For `NC(=O)c1ncn([C@@H]2O[C@H](CO)[C@@H](O)[C@H]2O)n1` [Ribavirin], in “in vitro”, the IC50 was > 320 µg/mL. The 50% effective concentration (EC50) in series [2] (Influenza A virus, H3N2, MDCK, read-out: Cntrl EC50) is 2 µg/mL (≈ 8.19 µM); in [3] (Influenza A virus, H5N1, MDCK, read-out: Cntrl EC50, Ribavirin control, Neutral Red), 12 µg/mL (≈ 49.1 µM); in the series on Flu B Shanghai/361/02 (MDCK, Neutral Red), 7.1 µg/mL (≈ 29.1 µM); with Flu B Shanghai/361/02 (MDCK, Visual-CONF), 1.7 µg/mL (≈ 6.96 µM); with Flu B Shanghai/361/02 (MDCK, Visual), 1.7 µg/mL (≈ 6.96 µM). For the same compound, the “Cntrl SI” value in series [2] (Neutral Red) is given as >160; in series [2] (Visual), >170; in series [3] (Ribavirin control, Neutral Red), >27; with Flu B Shanghai/361/02 (Neutral Red) it was >45; with Flu B Shanghai/361/02 (Visual), >190; in the series with Flu B Shanghai/361/02 (Visual-CONF), >190. For the same compound, in the series on Flu B Shanghai/361/02 (MDCK, read-out: Cntrl EC90), the EC90 is 37.7 µg/mL (≈ 154 µM).
Consider `C[C@@H]1O[C@@H](OC[C@H]2O[C@@H](Oc3c(-c4ccc(O)c(O)c4)oc4cc(O)cc(O)c4c3=O)[C@H](O)[C@@H](O)[C@@H]2O)[C@H](O)[C@H](O)[C@H]1O.O` [Rutin hydrate], for which the SI90 result with Human papillomavirus 11 was “Human papillomavirus 11 primary: SI50 > 109 (Control cidofovir SI50 = 12), SI90 = 5 (Control cidofovir SI90 = 1)”.
For the compound `COc1cc(C(=O)O)ccc1O` [Vanillic acid], the “time remaining in the blood stream post-digestion” value in [4] is given as “more than 11 hours”. Besides, in the series with Norovirus, the SI50 is 1 and the SI90 is reported as 1.
`Nc1nc2c(ncn2COCCO)c(=O)[nH]1` [acyclovir]: the EC50 with HSV-1 is 0.3 µg/mL (≈ 1.33 µM).
With `NC(=O)c1nc(F)c[nH]c1=O` [favipiravir], the SI50 in the series with Ebola is > 10.
In the case of `COc1ccccc1O` [guaiacol], in series [5], the “increase in laccase activity” value is on record as 73 fold.
On to `O=C(O)/C=C/c1ccc(O)cc1` [p-coumaric acid], for which the “increase in laccase activity” value in series [5] was 273 fold.
Turning to `COc1cc(C=O)ccc1O` [vanillin], the “share of vanillin metabolized into vanillic acid” value in [6] is listed as “up to 95%”.
